Experimental data as given in patent US20240218022A1, “ANTI-VISTA MACROCYCLIC PEPTIDES AND COMPOSITIONS” (BRISTOL-MYERS SQUIBB COMPANY, priority 2022, published 2024).
Like-named read-outs stand apart in the source and are kept apart here. Starred links: 1 amine or outer side, 2 acyl side, 3 side chain; linkers in the order of their positions; H or OH if unused. Positions of bridges follow the written chain, without caps; N, C: chain ends. Non-standard residues stand in square brackets, D forms with d. Residues, ends and D or L forms follow the SMILES beside them. γGlu = O=C(O)[C@H](CCC(=O)[*:2])N[*:1]; βAsp = O=C(O)[C@H](CC(=O)[*:2])N[*:1]; Tic = O=C(O)[C@@H]1Cc2ccccc2CN1; NMeL = CN[C@@H](CC(C)C)C(=O)O; Ahp(2) = CCCCC[C@H](N)C(=O)O; NMeNle = CCCC[C@H](NC)C(=O)O; Tle = CC(C)(C)[C@H](N)C(=O)O; NMeV = CN[C@H](C(=O)O)C(C)C; NHexGly = CCCCCCNCC(=O)O; Nle = CCCC[C@H](N)C(=O)O; Orn = NCCC[C@H](N)C(=O)O; Aun = NCCCCCCCCCCC(=O)O; AEEA = NCCOCCOCC(=O)O

Target: T1, mouse VISTA (mVISTA) (Mus musculus, UniProt Q9D659)
T1 construct: expressed in transfected cells; host or cells: Human embryonic kidney 293T cells
T1 sequence (Q9D659 33-308): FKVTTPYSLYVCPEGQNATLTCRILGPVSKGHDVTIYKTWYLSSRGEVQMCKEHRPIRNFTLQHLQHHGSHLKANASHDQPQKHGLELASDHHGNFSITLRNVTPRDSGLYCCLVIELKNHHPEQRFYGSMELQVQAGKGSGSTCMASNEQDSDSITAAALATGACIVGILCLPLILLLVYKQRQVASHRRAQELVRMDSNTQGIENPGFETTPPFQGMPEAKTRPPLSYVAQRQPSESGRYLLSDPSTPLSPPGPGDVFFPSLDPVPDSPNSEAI
Experiment: Cell-Based Binding High-Content Assay For mVISTA (HC CBA mVISTA)
In short: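 Read-out: Alexa 647–streptavidin signal imaged on fixed, Hoechst-stained mVISTA-293T cells, with IC50 taken from a four-parameter logistic curve. Compounds competed with 2 nM biotinylated peptide for 30 min at room temperature, tested under both no-wash and wash (1 h compound, media exchange, 1 h) formats.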

| SMILES | IC50 (read-out: HC CBA mVISTA IC50) [nM] | IC50 (cell-based binding high-content assay, mVISTA, read-out: HC CBA miPr ISTA IC50) [nM] |
| --- | --- | --- |
| CCCCCCN1CC(=O)N[C@@H](Cc2ccc(O)cc2)C(=O)N[C@@H](CCCC)C(=O)N[C@@H](CC(N)=O)C(=O)N[C@@H](CCCNC(=N)N)C(=O)N2Cc3ccccc3C[C@H]2C(=O)N[C@@H](CCCCC)C(=O)N2CCC[C@H]2C(=O)N[C@@H](C(C)C)C(=O)N[C@@H](CO)C(=O)N[C@H](C(=O)NCC(N)=O)CSCC(=O)N[C@@H](Cc2ccccc2)C(=O)N[C@@H](Cc2c[nH]c3ccccc23)C(=O)N[C@@H](CC(=O)O)C1=O [Example 1415] ({CH2CO}-FWD[NHexGly]Y[Nle]NR[Tic][Ahp(2)]PVSCG-NH2; thioether N-14) | 18.1 | – |
| CCCCCCN1CC(=O)N[C@@H](Cc2ccc(O)cc2)C(=O)N[C@@H](CC(C)C)C(=O)NCC(=O)N[C@@H](CCCNC(=N)N)C(=O)N[C@@H](Cc2ccc(O)cc2)C(=O)N[C@@H](CCCCC)C(=O)N2CCC[C@H]2C(=O)N[C@@H](C(C)C)C(=O)N[C@@H](CC(=O)O)C(=O)N[C@H](C(=O)NCC(N)=O)CSCC(=O)N[C@@H](Cc2ccccc2)C(=O)N[C@@H](Cc2c[nH]c3ccccc23)C(=O)N[C@@H](CC(=O)O)C1=O [Example 1416] ({CH2CO}-FWD[NHexGly]YLGRY[Ahp(2)]PVDCG-NH2; thioether N-14) | 51.7 | – |
| CCCCCCN1CC(=O)N[C@@H](Cc2ccc(O)cc2)C(=O)N[C@@H](CC(C)C)C(=O)NCC(=O)N[C@@H](CCCNC(=N)N)C(=O)N[C@@H](Cc2ccc(O)cc2)C(=O)N[C@@H](CCCCC)C(=O)N2CCC[C@H]2C(=O)N[C@@H](C(C)C)C(=O)N[C@@H](CC(=O)O)C(=O)N[C@H](C(=O)NCC(=O)O)CSCC(=O)N[C@@H](Cc2ccccc2)C(=O)N[C@@H](Cc2c[nH]c3ccccc23)C(=O)N[C@@H](CC(=O)O)C1=O [Example 1417] ({CH2CO}-FWD[NHexGly]YLGRY[Ahp(2)]PVDCG-OH; thioether N-14) | 24.9 | – |
| CCCCCCN1CC(=O)N[C@@H](Cc2ccc(O)cc2)C(=O)N[C@@H](CC(C)C)C(=O)N[C@@H](CC(N)=O)C(=O)N[C@@H](CCCN)C(=O)N(C)[C@@H](CC(C)C)C(=O)N[C@@H](CCCCC)C(=O)N2CCC[C@H]2C(=O)N[C@@H](C(C)(C)C)C(=O)N[C@@H](CO)C(=O)N[C@H](C(=O)N[C@@H](CC(=O)NCCOCCOCC(=O)N[C@@H](CC(=O)O)C(=O)NCCOCCOCC(=O)NCCCCCCCCCCC(=O)O)C(=O)O)CSCC(=O)N[C@@H](Cc2ccccc2)C(=O)N[C@@H](Cc2ccc(O)cc2)C(=O)N[C@@H](CC(=O)O)C1=O [Example 2000] ({CH2CO}-FYD[NHexGly]YLN[Orn][NMeL][Ahp(2)]P[Tle]SC[βAsp][AEEA]D[AEEA][Aun]-OH; thioether N-14) | – | 16.1 |
| CCCCCCN1CC(=O)N[C@@H](Cc2ccc(O)cc2)C(=O)N[C@@H](CC(C)C)C(=O)N[C@@H](CC(N)=O)C(=O)N[C@@H](CCCNC(=N)N)C(=O)N[C@@H](CC(C)C)C(=O)N[C@@H](CCCCC)C(=O)N2CCC[C@H]2C(=O)N[C@@H](C(C)C)C(=O)N[C@@H](CO)C(=O)N[C@H](C(=O)N[C@@H](CCC(=O)NCCCCCCCCCCC(=O)O)C(=O)O)CSCC(=O)N[C@@H](Cc2ccccc2)C(=O)N[C@@H](Cc2ccc(O)cc2)C(=O)N[C@@H](CC(=O)O)C1=O [Example 2127] ({CH2CO}-FYD[NHexGly]YLNRL[Ahp(2)]PVSC[γGlu][Aun]-OH; thioether N-14) | 15.9 | – |
| CCCCCCN1CC(=O)N[C@@H](Cc2ccc(O)cc2)C(=O)N[C@@H](CC(C)C)C(=O)NCC(=O)N[C@@H](CCCNC(=N)N)C(=O)N[C@@H](CC(C)C)C(=O)N[C@@H](CCCCC)C(=O)N2CCC[C@H]2C(=O)N[C@@H](C(C)C)C(=O)N[C@@H](CO)C(=O)N[C@H](C(=O)N[C@@H](CCC(=O)NCCCCCCCCCCC(=O)O)C(=O)O)CSCC(=O)N[C@@H](Cc2ccccc2)C(=O)N[C@@H](Cc2ccc(O)cc2)C(=O)N[C@@H](CC(=O)O)C1=O [Example 2128] ({CH2CO}-FYD[NHexGly]YLGRL[Ahp(2)]PVSC[γGlu][Aun]-OH; thioether N-14) | 30.1 | – |

The remaining lines, values ahead:

| IC50 (read-out: HC CBA mVISTA IC50) [nM] | IC50 (cell-based binding high-content assay, mVISTA, read-out: HC CBA miPr ISTA IC50) [nM] | SMILES |
| --- | --- | --- |
| 16.6 | – | CCCCCCN1CC(=O)N[C@@H](Cc2ccc(O)cc2)C(=O)N[C@@H](CCCCC)C(=O)N[C@@H](CC(N)=O)C(=O)N[C@@H](CCCNC(=N)N)C(=O)N[C@@H](Cc2c[nH]c3ccccc23)C(=O)N[C@@H](CCCCC)C(=O)N2CCC[C@H]2C(=O)N[C@@H](C(C)C)C(=O)N[C@@H](CO)C(=O)N[C@H](C(=O)N[C@@H](CCC(=O)NCCCCCCCCCCC(=O)O)C(=O)O)CSCC(=O)N[C@@H](Cc2ccccc2)C(=O)N[C@@H](Cc2ccc(O)cc2)C(=O)N[C@@H](CC(=O)O)C1=O [Example 2129] ({CH2CO}-FYD[NHexGly]Y[Ahp(2)]NRW[Ahp(2)]PVSC[γGlu][Aun]-OH; thioether N-14) |
| 37.2 | – | CCCCCCN1CC(=O)N[C@@H](Cc2ccc(O)cc2)C(=O)N[C@@H](CCCC)C(=O)NCC(=O)N[C@@H](CCCNC(=N)N)C(=O)N[C@@H](CC(C)C)C(=O)N[C@@H](CCCCC)C(=O)N2CCC[C@H]2C(=O)N[C@@H](C(C)C)C(=O)N[C@@H](CC(N)=O)C(=O)N[C@H](C(=O)N[C@@H](CCC(=O)NCCCCCCCCCCC(=O)O)C(=O)O)CSCC(=O)N[C@@H](Cc2ccccc2)C(=O)N[C@@H](Cc2ccc(O)cc2)C(=O)N[C@@H](CC(=O)O)C1=O [Example 2130] ({CH2CO}-FYD[NHexGly]Y[Nle]GRL[Ahp(2)]PVNC[γGlu][Aun]-OH; thioether N-14) |
| 38 | – | CCCCCCN1CC(=O)N[C@@H](Cc2ccc(O)cc2)C(=O)N[C@@H](CC(C)C)C(=O)N[C@@H](CC(N)=O)C(=O)N[C@@H](CCCNC(=N)N)C(=O)N(C)[C@@H](CCCC)C(=O)N[C@@H](CCCCC)C(=O)N2CCC[C@H]2C(=O)N[C@@H](C(C)(C)C)C(=O)N[C@@H](CO)C(=O)N[C@H](C(=O)N[C@@H](CCC(=O)NCCCCCCCCCCC(=O)O)C(=O)O)CSCC(=O)N[C@@H](Cc2ccccc2)C(=O)N[C@@H](Cc2c[nH]c3ccccc23)C(=O)N[C@@H](CC(=O)O)C1=O [Example 2131] ({CH2CO}-FWD[NHexGly]YLNR[NMeNle][Ahp(2)]P[Tle]SC[γGlu][Aun]-OH; thioether N-14) |
| 23.5 | – | CCCCCCN1CC(=O)N[C@@H](Cc2ccc(O)cc2)C(=O)N[C@@H](CC(C)C)C(=O)N[C@@H](CC(N)=O)C(=O)N[C@@H](CCCN)C(=O)N(C)[C@@H](CCCC)C(=O)N[C@@H](CCCCC)C(=O)N2CCC[C@H]2C(=O)N[C@@H](C(C)(C)C)C(=O)N[C@@H](CO)C(=O)N[C@H](C(=O)N[C@@H](CCC(=O)NCCCCCCCCCCC(=O)O)C(=O)O)CSCC(=O)N[C@@H](Cc2ccccc2)C(=O)N[C@@H](Cc2ccc(O)cc2)C(=O)N[C@@H](CC(=O)O)C1=O [Example 2132] ({CH2CO}-FYD[NHexGly]YLN[Orn][NMeNle][Ahp(2)]P[Tle]SC[γGlu][Aun]-OH; thioether N-14) |
| 24 | – | CCCCCCN1CC(=O)N[C@@H](Cc2ccc(O)cc2)C(=O)N[C@@H](CC(C)C)C(=O)N[C@@H](CC(N)=O)C(=O)N[C@@H](CCCNC(=N)N)C(=O)N(C)[C@@H](C(C)C)C(=O)N[C@@H](CCCCC)C(=O)N2CCC[C@H]2C(=O)N[C@@H](C(C)(C)C)C(=O)N[C@@H](CO)C(=O)N[C@H](C(=O)N[C@@H](CCC(=O)NCCCCCCCCCCC(=O)O)C(=O)O)CSCC(=O)N[C@@H](Cc2ccccc2)C(=O)N[C@@H](Cc2ccc(O)cc2)C(=O)N[C@@H](CC(=O)O)C1=O [Example 2133] ({CH2CO}-FYD[NHexGly]YLNR[NMeV][Ahp(2)]P[Tle]SC[γGlu][Aun]-OH; thioether N-14) |
| 21.7 | – | CCCCCCN1CC(=O)N[C@@H](Cc2ccc(O)cc2)C(=O)N[C@@H](CC(C)C)C(=O)N[C@@H](CC(N)=O)C(=O)N[C@@H](CCCN)C(=O)N(C)[C@@H](CCCC)C(=O)N[C@@H](CCCCC)C(=O)N2CCC[C@H]2C(=O)N[C@@H](C(C)(C)C)C(=O)N[C@@H](CO)C(=O)N[C@H](C(=O)N[C@@H](CCC(=O)NCCCCCCCCCCC(=O)O)C(=O)O)CSCC(=O)N[C@@H](Cc2ccccc2)C(=O)N[C@@H](Cc2c[nH]c3ccccc23)C(=O)N[C@@H](CC(=O)O)C1=O [Example 2134] ({CH2CO}-FWD[NHexGly]YLN[Orn][NMeNle][Ahp(2)]P[Tle]SC[γGlu][Aun]-OH; thioether N-14) |
| 31 | – | CCCCCCN1CC(=O)N[C@@H](Cc2ccc(O)cc2)C(=O)N[C@@H](CC(C)C)C(=O)N[C@@H](CC(N)=O)C(=O)N[C@@H](CCCNC(=N)N)C(=O)N(C)[C@@H](CC(C)C)C(=O)N[C@@H](CCCCC)C(=O)N2CCC[C@H]2C(=O)N[C@@H](C(C)(C)C)C(=O)N[C@@H](CO)C(=O)N[C@H](C(=O)N[C@@H](CCC(=O)NCCCCCCCCCCC(=O)O)C(=O)O)CSCC(=O)N[C@@H](Cc2ccccc2)C(=O)N[C@@H](Cc2ccc(O)cc2)C(=O)N[C@@H](CC(=O)O)C1=O [Example 2135] ({CH2CO}-FYD[NHexGly]YLNR[NMeL][Ahp(2)]P[Tle]SC[γGlu][Aun]-OH; thioether N-14) |
| 19.8 | – | CCCCCCN1CC(=O)N[C@@H](Cc2ccc(O)cc2)C(=O)N[C@@H](CC(C)C)C(=O)N[C@@H](CC(N)=O)C(=O)N[C@@H](CCCNC(=N)N)C(=O)N(C)[C@@H](CCCC)C(=O)N[C@@H](CCCCC)C(=O)N2CCC[C@H]2C(=O)N[C@@H](C(C)(C)C)C(=O)N[C@@H](CO)C(=O)N[C@H](C(=O)N[C@@H](CCC(=O)NCCCCCCCCCCC(=O)O)C(=O)O)CSCC(=O)N[C@@H](Cc2ccccc2)C(=O)N[C@@H](Cc2ccc(O)cc2)C(=O)N[C@@H](CC(=O)O)C1=O [Example 2136] ({CH2CO}-FYD[NHexGly]YLNR[NMeNle][Ahp(2)]P[Tle]SC[γGlu][Aun]-OH; thioether N-14) |
